SMILES strings stand for the structures. pIC50, pKi: −log10 of the molar value. Counter-ions that a name gives are not always drawn.

These results are taken from patent publication US5633276A, “Indoline derivatives, method of preparation and use” (Glaxo Group Limited, priority 1993, dated 1997).

One experiment concerns rabbit retina. Kind of experiment: Melatonin agonist or antagonist activity in rabbit retina. The format is cell-based. The settings on record: Oryctolagus cuniculus, method of Dubocovich. From the text:
(§1) The results obtained for particular compounds according to the present invention are as follows:

Experiment [1] addresses melatonin receptors in chicken retinal membranes. Kind of experiment: Binding to melatonin receptors in chicken retinal membranes. The following applies: method of Dubocovich and Takahashi, read-out: Chicken retina Ki.
Excerpt: as §1

By pIC50 is commonly meant −log10 of the IC50, conventionally taken in molar units. In general, pKi refers to −log10 of the Ki, conventionally taken in molar units. Compound `CC(=O)NCCN1CCc2ccc3c(c21)CCCO3` [Example 2, N-[2-(2,3,8,9-Tetrahydro-7H-pyrano[2,3-g]indol-1-yl)-ethyl]-acetamide hydrochloride] showed a negative logarithm of the IC50 (pIC50) in the experiment with rabbit retina of 9.02. Also, the pKi in experiment [1] was 8.31.
With `CC(=O)NCCN1CCc2cc(Cl)c3c(c21)CCO3` [Example 5, N-[2-(5-Chloro-2,3,7,8-tetrahydro-1H-furo[2,3-g]indol-1-yl)-ethyl]-acetamide], in experiment [1], the pKi is 8.49.
`CC(=O)NCCN1CCc2ccc3c(c21)CCO3` [Example 3, N-[2-(2,3,7,8-Tetrahydro-1H-furo[2,3-g]indol-1-yl)ethyl]-acetamide] showed a pIC50 in the experiment on rabbit retina of 10.40. The pKi in experiment [1] is 9.38.
For the compound `O=C(NCCN1CCc2ccc3c(c21)CCO3)C1CC1` [Example 6, Cyclopropanecarboxylic acid [2-(2,3,7,8-tetrahydro-1H-furo[2,3-g]indol-1-yl)-ethyl]-amide], the pIC50 in the experiment with rabbit retina is 9.70. Moreover, in experiment [1], the pKi was 8.77.
